Counter-ions that a name gives are not always drawn.

For the experiment, the target named is T1, human PPARα (Homo sapiens, UniProt Q07869).
T1 construct: amino acids S167-Y468; expressed in transfected cells; host or cells: HEK (human embryo kidney) cells, stably transfected with pcDNA3 carrying the fusion construct
T1 sequence (Q07869 167-468): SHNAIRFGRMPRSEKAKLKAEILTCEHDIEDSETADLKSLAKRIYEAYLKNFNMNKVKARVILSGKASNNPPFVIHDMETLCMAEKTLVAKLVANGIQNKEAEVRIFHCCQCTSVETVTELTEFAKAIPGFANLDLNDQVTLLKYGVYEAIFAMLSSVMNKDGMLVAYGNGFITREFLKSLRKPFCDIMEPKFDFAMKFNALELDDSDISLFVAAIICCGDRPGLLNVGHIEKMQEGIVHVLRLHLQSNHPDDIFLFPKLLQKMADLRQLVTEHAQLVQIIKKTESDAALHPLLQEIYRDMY
In words: Cellular PPARalpha assay (stably transfected HEK PPARalpha reporter cell line, luciferase). It is filed as cell-based. The following applies: 24 h incubation, luciferase readout. On the procedure:
(A) Determination of EC50 Values of PPAR Agonists in the Cellular PPARalpha Assay
The potency of substances that bind to human PPARα and activate in an agonistic manner is analyzed using a stably transfected HEK cell line (HEK=human embryo kidney) which is referred to here as PPARalpha reporter cell line. It contains two genetic elements, a luciferase reporter element (pΔM-GAL4-Luc-Zeo) and a PPARalpha fusion protein (GR-GAL4-humanPPARα-LBD) that mediates expression of the luciferase reporter element depending on a PPARalpha ligand. The stably and constitutively expressed fusion protein GR-GAL4-humanPPARalpha-LBD binds in the cell nucleus of the PPARalpha reporter cell line via the GAL4 protein portion to the GAL4 DNA binding motifs 5′-upstream of the luciferase reporter element which is integrated in the genome of the cell line. There is only little expression of the luciferase reporter gene without addition of a PPARalpha ligand if fatty acid-depleted fetal calf serum (cs-FCS) is used in the assay. PPARα ligands bind and activate the PPARα fusion protein and thereby bring about expression of the luciferase reporter gene. The luciferase which is formed can be detected by means of chemiluminescence via an appropriate substrate.
The PPARalpha reporter cell line was prepared in 2 stages. Firstly, the luciferase reporter element was constructed and stably transfected into HEK cells. For this purpose, five binding sites of the yeast transcription factor GAL4 (each 5′-CGGAGTACTGTCCTCCGAG-3′ (SEQ ID NO:1)) were cloned in 5′-upstream of a 68 bp-long minimal MMTV promoter (Genbank Accession # V01175). The minimal MMTV promoter section contains a CCAAT box and a TATA element in order to enable efficient transcription by RNA polymerase II. The cloning and sequencing of the GAL4-MMTV construct took place in analogy to the description of Sambrook J. et. al. (Molecular cloning, Cold Spring Harbor Laboratory Press, 1989). Then the complete Photinus pyralis gene (Genbank Accession # M15077) was cloned in 3′-downstream of the GAL4-MMTV element. After sequencing, the luceriferase reporter element consisting of five GAL4 binding sites, MMTV promoter and luciferase gene was recloned into a plasmid which confers zeocin resistance in order to obtain the plasmid pΔM-GAL4-Luc-Zeo. This vector was transfected into HEK cells in accordance with the statements in Ausubel, F. M. et al. (Current protocols in molecular biology, Vol.1-3, John Wiley & Sons, Inc., 1995). […] In a second step, the PPARalpha fusion protein (GR-GAL4-humanPPARalpha-LBD) was introduced into the stable cell clone described. For this purpose, initially the cDNA coding for the N-terminal 76 amino acids of the glucocorticoid receptor (Genbank Accession # P04150) was linked to the cDNA section coding for amino acids 1-147 of the yeast transcription factor GAL4 (Genbank Accession # P04386). The cDNA of the ligand-binding domain of the human PPARalpha receptor (amino acids S167-Y468; Genbank Accession # S74349) was cloned in at the 3′-end of this GR-GAL4 construct. The fusion construct prepared in this way (GR-GAL4-humanPPARalpha-LBD) was recloned into the plasmid pcDNA3 (from Invitrogen) in order to enable constitutive expression therein by the cytomegalovirus promoter. This plasmid was linearized with a restriction endonuclease and stably transfected into the previously described cell clone containing the luciferase reporter element. The finished PPARalpha reporter cell line that contains a luciferase reporter element and constitutively expresses the PPARalpha fusion protein (GR-GAL4-human PPARalpha-LBD) was isolated by selection with zeocin (0.5 mg/ml) and G418 (0.5 mg/ml).
The activity of PPARalpha agonists is determined in a 3-day assay described below: […]
In general, EC50 refers to the concentration giving half of the maximal effect. The low end stands for greater potency, the high end for weaker potency. `COc1cccc(-c2nc(CO[C@@H]3CCC[C@H](CCC(C(=O)O)C(C)C)C3)c(C)o2)c1` (relative stereo) [Example 74, 2-(2-{cis-3-[2-(3-methoxyphenyl)-5-methyloxazol-4-ylmethoxy]cyclohexyl}ethyl)-3-methylbutyric acid] returned an EC50 of 0.4 nM.

`CCc1oc(-c2ccc3ccccc3c2)nc1COC[C@@H]1CCC[C@H](COC(C)(C)C(=O)O)C1` (racemic) [Example 64, 2-[cis-3-(5-ethyl-2-(2-naphthyl)oxazol-4-yl-methoxymethyl)cyclohexylmethoxy]-2-methylpropionic acid] yielded an EC50 of 0.4 nM.

With `Cc1ccc(-c2nc(CO[C@@H]3CCC[C@H](COC4(C(=O)O)CCCC4)C3)c(C)o2)cc1` (relative stereo) [Example 9, 1-[cis-3-(5-Methyl-2-p-tolyloxazol-4-ylmethoxy)cyclohexylmethoxy]cyclo-pentanecarboxylic acid], the EC50 worked out at 4.3 nM.

In turn, `CCC(SCC1CCCC(OCc2nc(-c3ccc(C)cc3)oc2C)C1)C(=O)O` (stereo not drawn) [Example 24, 2-[cis-3-(5-methyl-2-p-tolyloxazol-4-ylmethoxy)cyclohexylmethylsulfanyl]butyric acid] displayed an EC50 of 0.3 nM.

With `Cc1ccc(-c2nc(CO[C@@H]3CCC[C@H](COC(Cc4ccccc4)C(=O)O)C3)c(C)o2)cc1` (relative stereo) [Example 4, 2-[cis-3-(5-methyl-2-p-tolyloxazol-4-ylmethoxy)cyclohexyl-methoxy]-3-phenylpropionic acid], the EC50 came out at 25 nM.

In the case of `Cc1oc(-c2ccc(C(F)(F)F)cc2)nc1COC1CCCC(COC(C)(C)C(=O)O)C1` [Example 16, 2-methyl-2-{(1R,3S)-cis-3-[5-methyl-2-(4-trifluoromethyl-phenyl)oxazol-4-ylmethoxy]cyclohexylmethoxy}propionic acid], a half-maximal effect (EC50) was put at 4 nM.

Turning to `Cc1ccc(-c2nc(CO[C@@H]3CCC[C@H](CSCC(=O)O)C3)c(C)o2)cc1` (racemic) [Example 22], the EC50 is 0.07 nM. Compared with the last compound, the EC50 is about 57-fold lower.

`CCCCCC(C(=O)O)S(=O)(=O)CC1CCCC(OCc2nc(-c3ccc(C)cc3)oc2C)C1` (stereo not drawn) [Example 38, 2-[cis-3-(5-methyl-2-p-tolyloxazol-4-ylmethoxy)cyclohexylmethylsulfonyl]heptanoic acid] gave an EC50 of 8.5 nM. Against the preceding compound, the EC50 is about 120-fold higher.

`CCCCCC(C(=O)O)[S+]([O-])CC1CCCC(OCc2nc(-c3ccc(C)cc3)oc2C)C1` (stereo not drawn) [Example 33, 2-[cis-3-(5-methyl-2-p-tolyloxazol-4-ylmethoxy)cyclohexylmethylsulfinyl]heptanoic acid] registered an EC50 of 17 nM.

With `Cc1ccc(-c2nc(COC3CCCC(CN(Cc4ccccc4)[C@H](C(=O)O)C(C)C)C3)c(C)o2)cc1` (mixture of isomers) [Example 51, (S)-2-{benzyl-[cis-3-(5-methyl-2-p-tolyloxazol-4-ylmethoxy)-cyclohexylmethyl]amino}-3-methylbutyric acid trifluoroacetic acid salt], the EC50 came to 12 nM.

In the case of `Cc1ccc(-c2nc(COC3CCCC(CN[C@H](C(=O)O)C(C)C)C3)c(C)o2)cc1` (mixture of isomers) [Example 42, (S)-3-Methyl-2{[cis-3-(5-methyl-2-p-tolyloxazol-4-ylmethoxy)cyclohexyl-methyl]amino}butyric acid], the EC50 came out at 79 nM.

In the case of `Cc1ccc(-c2nc(CO[C@H]3CCC[C@@H](COC(C)(C)C(=O)O)C3)c(C)o2)cc1` [Example 8a, 2-[(1R,3S)-3-(5-Methyl-2-p-tolyloxazol-4-ylmethoxy)cyclohexylmethoxy]-2-methylpropionic Acid], a half-maximal effect (EC50) was put at 1.8 nM.
